Source: patent US8916604B2, “Compositions and methods for epigenetic modification of nucleic acid sequences” (Rutgers, The State University of New Jersey, priority 2011, dated 2014)
Like-named read-outs stand apart in the source and are kept apart here.

Assays:
HepG2-C8 cells = assay: MTS cell viability assay; assay type: cell-based, human; details: Homo sapiens
Procedure: The stably transfected single clone HepG2-ARE-C8 (HepG2-C8) cell line has been established previously in our laboratory using the […]-luciferase reporter gene. The cells were maintained in Dulbecco's modified Eagle medium supplemented with 10% fetal bovine serum (FBS), 1.17 g/l sodium bicarbonate, and 100 unit/ml penicillin, 100 μg/ml streptomycin at 37° C. in a humidified incubator with 5% CO2. […] MTS] (Promega, Madison, Wis.). […] The cells were then treated with MTS for 1 h at 37° C. Absorbance of the formazan product was read at 490 nm with a μQuant Biomolecular Spectrophotometer from Bio-Tek Instruments Inc. (Winooski, Vt.). Independent control studies were conducted using 1% and 10% FBS medium.

5-methylcytosine (5-MC) = assay: IHC staining of TRAMP prostate tissue, global CpG methylation; assay type: in vivo, mouse; details: D-G1 and D-G2, p<0.001
Procedure: Sections (4 μm) were cut from the paraffin embedded prostate tissue and mounted on glass slides. The slides Were deparafinized in xylene and antigen unmasking was performed by applying proteinase K digestion directly on the slides for 15 min. Endogenous peroxidase was blocked by incubating in 3% […] for 5 min, and ApopTag Plus Peroxidase In Situ Apoptosis Detection Kit (Millipore, Temecula, Calif., U.S.A.) was used to detect apoptotic cells. For detection of proliferative cells, monoclonal mouse anti-proliferating cell nuclear antigen (PCNA) antibody (Clone PC10, 1:50, Dako North America, Carpinteria, Calif., U.S.A.) was used (12). The staining was performed following as the manufacturer's protocols. Anti-5-methylcytosine (5-MC) mouse monoclone antibody (Clone 162 33 D3, 1:50, EMD Chemicals, Philadelphia, Pa., U.S.A.) was used to detect genome-wide methylated DNA. […] Quantitation of IHC staining was done using the Aperio ScanScope® GL system according to the manufactures protocol (Aperio Technologies Inc., Vista, Calif., U.S.A.). […] The Aperio ImageScopoe software (v 10.1.3.2028) allowed the unbiased quantification and quantitative analysis of the IHC staining of biomarkers of prostate tumor samples obtained from untreated control versus the treated TRAMP mice.

DNMT1 = assay: qPCR in TRAMP C1 cells; assay type: cell-based, mouse; details: 5 μM and 10 μM, p<0.05
Procedure: (§1) The DIM used in the study contains approximately 98% of DIM purchased from Sigma-Aldrich t St. Louis, Mo., USA), TRAMP C1 cells (provided by Dr. Barbara Foster, Department of Pharmacology and Therapeutics, Roswell Park Cancer institute, Buffalo. NY), originally derived from TRAMP prostate tumor, were cultured in Dulbecco's Modified Eagle's Medium (Invitrogen Corp., Carlsbad, Calif. U.S.A.) supplemented with 10% (V/V) fetal bovine serum (FBS) (Invitrogen Corp., Grand Island, N.Y., U.S.A.), penicillin 100 U/ml, and streptomycin 100 μg/ml (Invitrogen Corp., Grand Island, N.Y., U.S.A.), Cells were maintained in a humidified incubator with 5% CO2 at 37° C. Cells were seeded in 10 cm plates for 24 h and then treated with 0.1% DMSO (control) or different concentrations of DIM in 1% FBS containing medium for 5 days. The medium was changed every 2 days (20), Total RNA were extracted from DIM treated TRAMP C1 cells and were reversed transcribed. The primers, DNMT1, DNMT3a, DNMT3b, NQO1, HO-1, GSTm1, UGT1a1 and control β-actin of qPCR are listed in Table 5 (Integrated DNA. Technologies, Coralville, Iowa, U.S.A.), The qPCR reactions were carried out with 1 μl cDNA product, 50 nM of each primer, and Power SYBR Green master mix (Applied Biosystems, Foster City, Calif., U.S.A.) in 10 μl reactions. The reactions were performed using an ABI Prism 7900HT sequence detection system; specificity of amplification was verified by first-derivative inciting curve analysis using the ABI software (SDS 2.3, Applied Biosystems, Foster City, Calif., U.S.A.). Relative quantification of gene expression profile was calculated using a ΔΔCt method. (RQ manager, Applied Biosystems, Foster City, C. CA, U.S.A.) as we have performed previously (Barve et al., J Pharm Sci., 2008; 94: 4528-45). Three independent experiments were carried out showing similar results. The results are presented as mean±SD.

DNMT3a = assay: qPCR in TRAMP C1 cells; assay type: cell-based, mouse; details: 5 μM, p<0.05
Procedure: as §1

DNMT3b = assay: qPCR in TRAMP C1 cells; assay type: cell-based, mouse; details: 5 μM and 10 μM
Procedure: as §1

GSTm1 = assay: qPCR in TRAMP C1 cells; assay type: cell-based, mouse; details: 5 days
Procedure: as §1

NQO1 = assay: qPCR in TRAMP C1 cells; assay type: cell-based, mouse; details: 5 days
Procedure: as §1

Nrf2 = assay: qPCR in TRAMP C1 cells; assay type: cell-based, mouse; details: 5 days
Procedure: as §1

**Q.** Which results are given for c1ccc2c(Cc3c[nH]c4ccccc34)c[nH]c2c1 [DIM, 3,3′-diindolylmethane]?
**A.** IC50 (HepG2-C8 cells; HepG2C8, 1% FBS medium, read-out: cell viability inhibitory concentrations (IC50)): 51 µM; IC50 (HepG2-C8 cells; HepG2C8, 10% FBS medium (data not shown), read-out: cell viability IC50): ~85 µM; 5-MC IHC staining of the prostate tissue (5-methylcytosine (5-MC)): significantly decreased; DNMT1 mRNA expression (DNMT1): significantly suppressed; DNMT3a mRNA expression (DNMT3a): suppressed; DNMT3b mRNA expression (DNMT3b): suppressed; GSTm1 mRNA expression (GSTm1): enhanced; NQO1 mRNA expression (NQO1): enhanced; Nrf2 mRNA expression (Nrf2): enhanced
